We go through nine compounds from paper PMC2673211, “Nitric oxide activates ATP-sensitive potassium channels in mammalian sensory neurons: action by direct S-nitrosylation” (Molecular Pain, 2009).

The target of test [1] is T1, wild-type SUR1/Kir6.2 channels (Rattus norvegicus, UniProt P70673+Q09429).
T1 construct: A full-length Kir cDNA and a full-length SUR cDNA were subcloned into the mammalian expression vector; expressed in transfected cells; host or cells: COS7 cells (KATP channel-deficient), pcDNA3.1(-) vectors, GFP cDNA co-transfected as a separate reporter
In words: Inside-out patch recording of recombinant wild-type channels expressed in COS7 cells. It counts as biochemical. As to the method: (§1) KATP channel-deficient COS7 cells were plated at a density of 3 × 10^5/dish (35 mm in diameter) and cultured in Dulbecco's modified Eagle's medium supplemented with 10% fetal calf serum. Rat Kir6.2 (GenBank X97041) and rat SUR1 (GenBank X97279) cDNAs were used for expression study. A truncated form of Kir6.2 lacking the last 36 amino acids at the C-terminus was obtained by polymerase chain reaction amplification. Polymerase chain reaction products were cloned into the pCR3.1 vector by using the TA cloning system (Invitrogen Corp., Carlsbad, CA, USA) and then cloned into the pcDNA3.1 (-) vector (Invitrogen Corp.) for mammalian expression. Point mutation of cysteine at position 717 (C717), C806, C1378, C1446, and C1491 within SUR1 to serine (C717S, C806S, C1378S, C1446S, and C1491S) was performed by using the Site-Directed Mutagenesis system (Invitrogen Corp.). All cDNA products were sequenced by using the BigDye terminator cycle sequencing kit and an ABI PRISM 377 DNA sequencer (Applied Biosystems, Foster City, CA) to confirm the sequence. A full-length Kir cDNA and a full-length SUR cDNA were subcloned into the mammalian expression vector pcDNA3.1 (-). For electrophysiological recordings, either wild-type or mutated pcDNA3.1 (-) Kir6.2 alone (1 μg), or pcDNA3.1 (-) Kir6.2 (1 μg) plus pcDNA3.1 (-) SUR1 (3 μg) were transfected into COS7 cells with green fluorescent protein cDNA as a reporter gene by using lipofectamine and Opti-MEN 1 reagents (Life Technologies Inc., Rockville, MD) according to the manufacturer's instructions. After transfection, cells were cultured at 37°C with 95% air and 5% CO2 for 48–72 h before being subjected to electrophysiological recordings.
(§2) We recorded current passing through single channels in inside-out or cell-attached patch configurations. In cell-attached patches, both bath and pipette (extracellular) solutions were composed of the following: 140 mM KCl, 10 mM HEPES, 5.5 mM dextrose, and 1 mM EGTA. In inside-out patches, the bath (intracellular) solution contained 140 mM KCl, 1.2 mM MgCl2, 10 mM HEPES, 1.5 mM EGTA and 5.5 mM dextrose. The pipette (extracellular) solution was of the same composition as that used in cell-attached recordings. The pH of all solutions was adjusted to 7.4 with KOH. Osmolality was adjusted approximately to 300 mOsm/l by adding sucrose if necessary. We pulled patch micropipettes from borosilicate glass capillaries using a Flaming/Brown micropipette puller, model P-97 (Sutter, San Rafael, CA) and flame polished them with a microforge polisher (Narishige, Tokyo, Japan) prior to use. Their resistance ranged between 3 and 6 MΩ when filled with the internal solution, and placed into the recording solutions.
(§3) We recorded single channel currents at room temperature (20–25°C) using an Axon CNS Multiclamp 700B amplifier, digitized them using an analog-to-digital converter (Axon CNS DigiData 1440A; Axon Instruments, Foster, CA), and stored them into a PC. Sampling frequency of single-channel data was 5 KHz with a low-pass filter (1 KHz). We used pClamp version 10.2 software (Axon Instruments) for data acquisition and analysis. […] Channel open probability (Po) was determined from the ratios of the area under the peaks in the amplitude histograms fitted by a Gaussian distribution. We calculated channel activity as NPo (where N is the number of observed channels in the patch) from data samples of either 30 s (in inside-out recordings), or 60 s (in cell-attached recordings), in the steady state. […]

The target in test [2] is T2, KATP channels in large DRG neurons (Rattus norvegicus, UniProt P70673+Q09429).
T2 construct: native KATP channels in large DRG neurons; endogenous in cells; host or cells: acutely dissociated large-diameter neurons from rat L4/L5 dorsal root ganglia (sham-operated or spinal nerve ligated animals)
Kind of test: Cell-attached single-channel patch-clamp recording of KATP channel activity (NPo). It counts as cell-based. The note with it: for baseline NPo after pretreatment with L-NAME: L-NAME 100 μM for 20 minutes; for NPo, DNP-induced channel opening: DNP 100 μM bath application, -60 mV; for NPo 10 min after SNAP following pretreatment with ODQ: ODQ 10 μM for 20 min; for NPo 10 min after SNAP following pretreatment with ODQ / NPo 10 min after SNAP following pretreatment with KT 5823: then SNAP 100 μM; for NPo 10 min after SNAP following pretreatment with KT 5823: KT 5823 1 μM for 20 min.
From the text: (§4) We harvested control (L4 and L5) or axotomized (L5) ganglia, from control (SS) or hyperalgesic rats (SNL) respectively, between the 17th and 28th postoperative days. We sacrificed animals by decapitation under deep isoflurane anesthesia, excised ganglia through a lumbar incision, and at the same time confirmed accuracy of initial surgery.
For patch-clamp recordings, we placed excised DRG into separate 35 mm Petri dishes containing cold, oxygenated, Hanks Balanced Salt Solution (Gibko, Invitrogen, Grand Islan, NY), and minced them with iris scissors. We dissociated ganglia enzymatically in a solution containing 0.25 ml 0.05% w:v liberase blendzyme 2 (Roche Diagnostics Corp., Indianapolis, IN) and 0.25 ml DMEM/F12 with glutaMAX (Dulbecco's modified Eagle's medium F12; Gibco, Invitrogen Corp., Carlsbad, CA) in an incubator at 37°C for 30 min. […] Finally, we plated cells onto poly-l-lysine-coated 12-mm glass coverslips (Deutsche Spiegelglas; Carolina Biologic Supply, Burlington, NC), kept them in a humidified incubator at 37°C with 95% air and 5% CO2, and studied them within 3–8 h of dissociation.
We visualized plated neurons using an inverted Nikon Diaphot 300 microscope with Hoffman modulation optic system. […] Large neuronal somata, roughly correspond to large, myelinated Aβ fibers.
as §2
Sampling frequency of single-channel data was 5 KHz with a low-pass filter (1 KHz). […] We applied a conventional 50% current amplitude threshold level criterion to determine open events. Channel open probability (Po) was determined from the ratios of the area under the peaks in the amplitude histograms fitted by a Gaussian distribution. We calculated channel activity as NPo (where N is the number of observed channels in the patch) from data samples of either 30 s (in inside-out recordings), or 60 s (in cell-attached recordings), in the steady state. In inside-out recordings, NPo of the KATP channels was normalized to the baseline NPo value obtained before test drugs at bathing solution without ATP (indicating relative channel activity).
For orientation: The patch-clamp technique gives a direct electrical read-out from membranes.

Test [3] addresses T2, KATP channels in large DRG neurons. Kind of test: Excised inside-out (cell-free) patch-clamp recording of KATP channel activity. It counts as biochemical.
From the text: as §4
For patch-clamp recordings, we placed excised DRG into separate 35 mm Petri dishes containing cold, oxygenated, Hanks Balanced Salt Solution (Gibko, Invitrogen, Grand Islan, NY), and minced them with iris scissors. We dissociated ganglia enzymatically in a solution containing 0.25 ml 0.05% w:v liberase blendzyme 2 (Roche Diagnostics Corp., Indianapolis, IN) and 0.25 ml DMEM/F12 with glutaMAX (Dulbecco's modified Eagle's medium F12; Gibco, Invitrogen Corp., Carlsbad, CA) in an incubator at 37°C for 30 min. We then removed the supernatant after centrifugation and re-incubated cells at 37°C for another 30 min in 0.2 ml 0.0625% trypsin (Sigma, St. Louis, MO) and 0.0125% deoxyribonuclease 1 (150,000 U, Sigma, St. Louis, MO) in 0.25 ml DMEM. We then isolated cells by centrifugation (600 rpm for 5 min) after adding 0.25 ml trypsin inhibitor 0.1% w:v (Sigma St. Louis, MO), and re-suspended them in a culture medium consisting of 0.5 mM glutamine, 0.02 mg/ml gentamicin (Gibco, Invitrogen Corp., Carlsbad, CA), 100 ng/ml nerve growth factor 7S (Alomone Labs, Jerusalem, Israel), 2% (vol/vol) B-27 supplement (Gibco, Invitrogen Corp., Carlsbad, CA), and 98% (vol/vol) neural basal medium A (Gibco, Invitrogen Corp., Carlsbad, CA). Finally, we plated cells onto poly-l-lysine-coated 12-mm glass coverslips (Deutsche Spiegelglas; Carolina Biologic Supply, Burlington, NC), kept them in a humidified incubator at 37°C with 95% air and 5% CO2, and studied them within 3–8 h of dissociation.
We visualized plated neurons using an inverted Nikon Diaphot 300 microscope with Hoffman modulation optic system. We selected only large diameter neuronal somata (≥ 40 μm in diameter) because we have previously shown that only these develop KATP current alterations, as well as changes indicative of increased excitability after painful-like nerve injury by SNL [74]. Large neuronal somata, roughly correspond to large, myelinated Aβ fibers.
as §2
We recorded single channel currents at room temperature (20–25°C) using an Axon CNS Multiclamp 700B amplifier, digitized them using an analog-to-digital converter (Axon CNS DigiData 1440A; Axon Instruments, Foster, CA), and stored them into a PC. Sampling frequency of single-channel data was 5 KHz with a low-pass filter (1 KHz). We used pClamp version 10.2 software (Axon Instruments) for data acquisition and analysis. We applied a conventional 50% current amplitude threshold level criterion to determine open events. Channel open probability (Po) was determined from the ratios of the area under the peaks in the amplitude histograms fitted by a Gaussian distribution. […]

Test [4] deals with T3, SUR1-C717S/Kir6.2 channels (Rattus norvegicus, UniProt P70673+Q09429, C717S).
T3 construct: A full-length Kir cDNA and a full-length SUR cDNA were subcloned into the mammalian expression vector; expressed in transfected cells; host or cells: COS7 cells, pcDNA3.1(-) vectors, GFP cDNA co-transfected as a separate reporter
Kind of test: Inside-out patch recording of mutated channels expressed in COS7 cells. To be noted: DTT 5 mM; n = 7. The class given is biochemical. As to the method: as §1, §2, §3

[5] abbreviates: agent alone, vs. baseline/control.

T2 sequence (Q09429 whole entry): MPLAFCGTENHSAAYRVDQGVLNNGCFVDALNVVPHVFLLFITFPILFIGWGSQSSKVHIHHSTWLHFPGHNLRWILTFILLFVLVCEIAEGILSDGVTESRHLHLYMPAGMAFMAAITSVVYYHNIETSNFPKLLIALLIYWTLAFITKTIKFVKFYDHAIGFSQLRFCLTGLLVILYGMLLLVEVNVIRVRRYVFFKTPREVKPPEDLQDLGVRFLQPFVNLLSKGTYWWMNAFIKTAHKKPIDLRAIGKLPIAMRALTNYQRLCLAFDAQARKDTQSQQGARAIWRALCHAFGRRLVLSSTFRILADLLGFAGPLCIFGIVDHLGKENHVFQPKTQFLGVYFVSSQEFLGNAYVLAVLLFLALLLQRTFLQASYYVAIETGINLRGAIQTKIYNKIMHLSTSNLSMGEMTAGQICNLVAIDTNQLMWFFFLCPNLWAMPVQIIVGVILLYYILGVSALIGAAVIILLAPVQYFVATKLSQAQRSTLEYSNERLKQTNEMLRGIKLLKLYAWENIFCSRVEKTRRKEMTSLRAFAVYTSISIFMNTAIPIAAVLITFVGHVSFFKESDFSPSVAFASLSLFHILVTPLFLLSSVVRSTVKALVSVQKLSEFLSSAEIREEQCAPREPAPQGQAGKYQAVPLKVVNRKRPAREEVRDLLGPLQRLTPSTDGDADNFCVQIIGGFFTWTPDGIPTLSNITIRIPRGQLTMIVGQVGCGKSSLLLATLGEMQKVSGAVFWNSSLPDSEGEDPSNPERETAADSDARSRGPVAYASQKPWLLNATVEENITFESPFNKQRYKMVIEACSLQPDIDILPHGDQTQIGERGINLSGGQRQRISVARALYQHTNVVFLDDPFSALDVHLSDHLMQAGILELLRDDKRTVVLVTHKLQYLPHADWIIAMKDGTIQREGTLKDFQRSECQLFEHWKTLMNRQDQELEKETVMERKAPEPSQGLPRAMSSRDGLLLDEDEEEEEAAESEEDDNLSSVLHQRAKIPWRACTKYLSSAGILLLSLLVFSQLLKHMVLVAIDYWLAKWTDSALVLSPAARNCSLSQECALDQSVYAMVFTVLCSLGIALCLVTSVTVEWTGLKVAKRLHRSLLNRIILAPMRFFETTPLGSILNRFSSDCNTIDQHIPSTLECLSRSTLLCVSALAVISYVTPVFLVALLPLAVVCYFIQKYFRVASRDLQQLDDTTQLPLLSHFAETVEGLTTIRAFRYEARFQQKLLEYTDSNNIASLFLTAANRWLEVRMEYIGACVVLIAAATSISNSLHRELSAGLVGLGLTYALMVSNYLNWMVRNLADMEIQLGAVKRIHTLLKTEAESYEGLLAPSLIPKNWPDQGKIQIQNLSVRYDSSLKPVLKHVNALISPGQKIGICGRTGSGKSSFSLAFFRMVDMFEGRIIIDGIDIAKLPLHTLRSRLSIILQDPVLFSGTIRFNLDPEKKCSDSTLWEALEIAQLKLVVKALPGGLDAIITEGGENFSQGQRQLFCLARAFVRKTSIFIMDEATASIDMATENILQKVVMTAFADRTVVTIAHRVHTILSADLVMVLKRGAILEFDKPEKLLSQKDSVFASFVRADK
T2 sequence (P70673 whole entry): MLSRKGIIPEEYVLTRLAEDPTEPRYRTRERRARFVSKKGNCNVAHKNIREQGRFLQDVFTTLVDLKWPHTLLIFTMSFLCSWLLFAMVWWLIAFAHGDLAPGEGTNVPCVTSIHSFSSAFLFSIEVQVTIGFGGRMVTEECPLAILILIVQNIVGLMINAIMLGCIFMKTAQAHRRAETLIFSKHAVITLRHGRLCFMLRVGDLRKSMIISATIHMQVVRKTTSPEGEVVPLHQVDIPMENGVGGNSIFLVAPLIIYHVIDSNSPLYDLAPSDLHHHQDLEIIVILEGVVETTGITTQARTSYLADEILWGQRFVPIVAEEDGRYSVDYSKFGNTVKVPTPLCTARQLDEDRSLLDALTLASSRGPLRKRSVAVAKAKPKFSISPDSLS
T1 sequence (Q09429 whole entry): as the sequence (Q09429 whole entry) above
T1 sequence (P70673 whole entry): as the sequence (P70673 whole entry) above
T3 sequence (Q09429 whole entry C717S): as the sequence (Q09429 whole entry) above, with C717S counted along it
T3 sequence (P70673 whole entry): as the sequence (P70673 whole entry) above

For the compound nitric oxide [NO], the “potency of direct activation of cloned channels relative to native channels (less potent)” value in test [1] (cloned SUR1/Kir6.2 in COS7 cells vs. native channels in DRG neurons) is “approximately 3 fold”.
In the case of `CCCOc1ccccc1-c1nc2nn[nH]c2c(=O)[nH]1` [zaprinast], the “effect on KATP channel activity” value in test [2] (zaprinast, control and SNL neurons, data not shown) was “no effect”.
Consider `O[C@@H](CS)[C@@H](O)CS` (racemic) [DTT, di-thiothreitol], for which the “effect on SNAP-activated currents” value in test [1] (DTT 5 mM after SNAP 1 mM) is listed as “almost completely suppressed”. In addition, the “effect on SNAP-induced KATP channel activation” value in test [3] (SS neurons, DTT 5 mM after SNAP 100 μM, 1 mM [ATP]i, n = 7) was “completely reversed”. For the same compound, the “direct effect on KATP channels in inside-out patches” value (shortened to “direct effect on KATP channels”) in test [3] (setting [5]) is “no direct effect”. The “effect on SNAP-induced channel activation” value in test [4] was “reversed”.
With `COC(=O)[C@@H](N)CCCNC(N)=N[N+](=O)[O-]` [L-NAME, NG-nitro-L-arginine methyl ester], in test [3] (setting [5]), the “direct effect on KATP channels” value is “no direct effect”. Moreover, the “baseline NPo after pretreatment with L-NAME” value in test [2] (SNL neurons, n = 7) is recorded as 0.06 ± 0.04; in test [2] (SS neurons, n = 7) it was 0.114 ± 0.06.
`CCN1C(=O)C=CC1=O` [NEM, N-ethylmaleimide]: the “effect on basal channel activity” value in test [3] (NEM 5 mM, 1 mM [ATP]i, n = 6) is “significantly decreased”. For the same compound, the “effect on the activating effect of SNAP on KATP channels” value in test [3] (SS neurons, NEM 5 mM before SNAP 100 μM, 1 mM [ATP]i, n = 6) is given as “completely eliminated”.
For `Nc1nc2c(nc(Br)n2[C@@H]2O[C@@H]3COP(=O)([O-])O[C@H]3[C@H]2O)c(=O)[nH]1.[Na+]` [8-Br-cGMP, 8-bromo-cGMP sodium salt], in test [2] (8-Br-cGMP 100 μM), the “time to steady-state activation after exposure” value lay in the range of 2 to 3 min. For the same compound, the “effect when applied after SNAP-induced steady-state activation” value in test [2] (8-Br-cGMP at least 5 min after SNAP 100 μM, SS and SNL neurons, n = 5 each) is “additional further channel opening”. In addition, the “NPo 5 min after application of 8-Br-cGMP” value was found to be 0.17 ± 0.06 in test [2] (SNL neurons, 8-Br-cGMP 100 μM, n = 7) and 0.22 ± 0.08 in test [2] (SS neurons, 8-Br-cGMP 100 μM, n = 8).
Regarding `O=[N+]([O-])c1ccc(O)c([N+](=O)[O-])c1` [DNP, 2,4-Dinitrophenol], the “direct effect on KATP channels” value in test [3] (DNP 100 μM, SS and SNL, vs. baseline) is on record as “no direct effect”. Moreover, the “NPo, DNP-induced channel opening” value is 0.208 ± 0.16 in test [2] (SNL neurons, n = 8) and 0.442 ± 0.26 in test [2] (SS neurons, n = 8).
As for `O=c1onc2cnc3ccccc3n12` [ODQ, 1H-[1,2, 4] oxadiazolo [4,3-a] quinoxalin-1-one], the “direct effect on KATP channels” value in test [3] (setting [5]) was “neither ODQ nor KT 5823 had any direct effect”. Moreover, the “NPo 10 min after SNAP following pretreatment with ODQ” value in test [2] (SNL neurons, n = 6) came out at 0.27 ± 0.16; in test [2] (SS neurons, n = 6), 0.25 ± 0.09.
On to `COC(=O)[C@@]1(OC)C[C@H]2O[C@]1(C)n1c3ccccc3c3c4c(c5c6ccccc6n2c5c31)C(=O)N(C)C4` [KT 5823], for which the “direct effect on KATP channels” value in test [3] (setting [5]) is recorded as “neither ODQ nor KT 5823 had any direct effect”. Besides, the “effect of pretreatment on 8-Br-cGMP-induced KATP channel activation” value in test [2] (KT 5823, SS and SNL neurons) was “significantly reduces”. Besides, the “NPo 10 min after SNAP following pretreatment with KT 5823” value in test [2] (SNL neurons, n = 6) was found to be 0.26 ± 0.19; in test [2] (SS neurons, n = 5), 0.14 ± 0.17.
